This data set relates to acute GVHD in F1 hybrid BN/Lew rats. The data set can be described thus: GVHD animal experiment: irradiated rats after transplantation of bone marrow cells and T lymphocytes. The data set is classed as in vivo. The settings on record: methotrexate-albumin 2 mg/kg i.p. day 0, 4, 8, 12, MTX at equieffective doses. From the text:
Animal experiments: (authorization No. LVL M-V310-4/7221.3-1.2-015/03 Landesveterinäramt Mecklenburg-Vorpommern Rostock)
Dr. M. Freund in Rostock University clinic under the direction of PD Dr G. Hartung and Dr D. Wolff. These entailed 20 female F1 hybrid BN/Lew rats receiving whole-body irradiation with 7.5 Gy (n=10) or 9 Gy (n=10) and then transplantation of 40 million bone marrow cells and 15 million T lymphocytes from female Lew rats.

For the compound `CN(Cc1cnc2nc(N)nc(N)c2n1)c1ccc(C(=O)N[C@@H](CCC(=O)O)C(=O)O)cc1` [MTX, 4-amino-4-deoxy-10-methylfolic acid], the side effects result was “distinct side effect”.
